In one data set the target is HDAC1 (Homo sapiens (Human), UniProt Q13547). The data set can be described thus: HDAC enzyme assay. It counts as biochemical. Conditions: enzyme pre-incubated with compound for 24 hours. The method, then: (§1) Compounds for testing were diluted in DMSO to 50 fold the final concentration and a ten point three fold dilution series was made. The compounds were diluted in assay buffer (50 mM HEPES, pH 7.4, 100 mM KCl, 0.001% Tween-20, 0.05% BSA, 20 μM tris(2-carboxyethyl)phosphine) to 6 fold their final concentration. The HDAC enzymes (purchased from BPS Biosciences) were diluted to 1.5 fold their final concentration in assay buffer and pre-incubated with the compounds for 24 hours prior to addition of the substrate.
(§2) The substrate tripeptide substrate 3 (synthesized in house) for each enzyme was equal to the Km as determined by a substrate titration curve. The substrates were diluted in assay buffer at 6× their final concentration with 0.3 μM sequencing grade trypsin (Sigma). The substrate/trypsin mix was added to the enzyme/compound mix, the plate was shaken for 60 seconds and placed into a Spectramax M5 microtiter plate reader. The development of fluorescence was monitored for […] and the linear rate of the reaction was calculated. The IC50 was determined using Graph Pad Prism by a four parameter curve fit. The IC50 values obtained for the compounds of this invention are found in Table 1.

A further data set concerns the target HDAC2 (Homo sapiens (Human), UniProt Q92769). As to the kind of experiment: HDAC enzyme assay. It counts as biochemical. Conditions: enzyme pre-incubated with compound for 24 hours. The method, then: as §1, §2
The target in a further data set is HDAC3 (Homo sapiens (Human), UniProt O15379). The data set can be described thus: HDAC enzyme assay. The data set is classed as biochemical. The conditions noted are these: enzyme pre-incubated with compound for 24 hours. The method, then:
as §1, §2

For data set [1], the system named is human CD34+ bone marrow cells. As to the kind of experiment: Fetal globin (HbG) induction in cultured CD34+ cells undergoing erythroid differentiation. The conditions noted are these: for increase in the percentage of HbG relative to other beta-like globin transcripts: 1 μM, treatment of cells for 6 days. It counts as cell-based. Here is the method:
CD34+ cells isolated from human bone marrow were cultured in vitro using two distinct sets of culture conditions. Culture system 1 (CS1), described by Xu J et al. (Science 2011 Nov. 18; 334(6058):993-6), consists of a 7 day expansion phase in media that supports hematopoietic progenitor cells followed by a differentiation phase of 4 to 8 days in media that induces development of erythroid lineage cells. Culture system 2 (CS2), described by Bradner J E (Proc Natl Acad Sci USA. 2010 Jul. 13; 107(28):12617-22), consists of a 7 day expansion phase in media that supports differentiation of cells towards the erythroid lineage followed by a differentiation phase for 3 days where erythroid cell development continues. After 3 to 5 days in differentiation media CS1 cells are primarily early erythroblasts (EB), while CS2 cells are primarily late EB. mRNA levels were determine by quantitative real time PCR using primer/probe sets designed to adult major β-globin (β), adult minor β-globin (δ), fetal β-like globin (HbG, γ), and embryonic β-like globin (ε). Protein levels were determined by flow cytometry using fluorescent antibodies against fetal hemoglobin (HbF) or adult hemoglobin (HbA). […] Globin mRNA levels were determined in cells at day 0, 3, 5, and 8 of differentiation. […] Globin mRNA levels were determined at day 3 of differentiation. […] Hemoglobin protein levels within each cell were determined at day 5 of differentiation. […] After 2 days, media was exchanged and cells were differentiated for an additional 2 days in the absence of compound. Hemoglobin protein levels within each cell were determined at day 4 of differentiation.
(§3) To investigate whether HDAC1 or HDAC2 was the preferred therapeutic target, two compounds were used.

Data set [2] deals with human CD34+ bone marrow cells. The data set can be described thus: Cell viability / cytotoxicity in cultured CD34+ cells. The data set is classed as cell-based. The conditions noted are these: 1 μM, after 6 days of treatment.
Description: as §3

For data set [3], the system named is human CD34+ bone marrow cells. The data set can be described thus: Erythroid differentiation markers CD71 and glycophorinA. The data set is classed as cell-based. Conditions: 1 μM, 6 days.
Description: as §3

For data set [4], the system named is early erythroblasts (CD71+, GlyA−). The data set can be described thus: Gene expression profiling, Affymetrix PrimeView GeneChips. It counts as cell-based. The conditions noted are these: n=3 vs vehicle. An excerpt:
(§4) Significant enrichment in other gene sets involving targets linked to HbG regulation, including lysine-specific demethylase 1 (LSD1) (Shi L, Nature Medicine, 2012) were identified.

Data set [5] deals with late erythroblasts (CD71+, GlyA+). The data set is described as above. It counts as cell-based.
Description: as §4

The subject of a further data set is Bcl11A mRNA. The data set can be described thus: GeneChip and quantitative real-time PCR time course. The data set is classed as cell-based. From the text:
(§5) ChIP-seq data, both by itself and in combination with gene expression data, will provide further insight into the mechanism through which HDAC1/2 regulates HbF synthesis.

The next data set relates to Gata2 mRNA. Described as above. It counts as cell-based.
Description: as §5

In the next data set the test system is Klf2 mRNA. Described as above. It counts as cell-based.
Description: as §5

Another data set concerns Sox6 mRNA. Described as above. It counts as cell-based.
Description: as §5

The structures appear in SMILES notation. pIC50: −log10 of the molar value.

HDAC3, sequence (O15379 whole entry): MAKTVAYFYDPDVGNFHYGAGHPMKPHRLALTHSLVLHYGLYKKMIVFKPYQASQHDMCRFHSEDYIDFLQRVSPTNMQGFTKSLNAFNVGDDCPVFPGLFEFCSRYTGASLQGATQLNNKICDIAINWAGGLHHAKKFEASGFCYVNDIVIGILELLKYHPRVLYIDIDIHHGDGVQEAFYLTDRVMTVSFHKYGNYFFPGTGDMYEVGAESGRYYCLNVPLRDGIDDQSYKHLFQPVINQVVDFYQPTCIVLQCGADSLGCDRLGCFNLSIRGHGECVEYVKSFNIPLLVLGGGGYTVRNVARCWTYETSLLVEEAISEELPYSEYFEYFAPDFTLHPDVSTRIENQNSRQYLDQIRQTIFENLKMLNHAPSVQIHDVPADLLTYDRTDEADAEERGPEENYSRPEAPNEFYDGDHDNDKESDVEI
HDAC3, sequence (Q9Y618 395-489 partner): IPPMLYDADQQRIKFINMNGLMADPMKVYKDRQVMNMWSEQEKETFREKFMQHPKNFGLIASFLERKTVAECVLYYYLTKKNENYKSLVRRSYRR
HDAC1, sequence (Q13547 whole entry): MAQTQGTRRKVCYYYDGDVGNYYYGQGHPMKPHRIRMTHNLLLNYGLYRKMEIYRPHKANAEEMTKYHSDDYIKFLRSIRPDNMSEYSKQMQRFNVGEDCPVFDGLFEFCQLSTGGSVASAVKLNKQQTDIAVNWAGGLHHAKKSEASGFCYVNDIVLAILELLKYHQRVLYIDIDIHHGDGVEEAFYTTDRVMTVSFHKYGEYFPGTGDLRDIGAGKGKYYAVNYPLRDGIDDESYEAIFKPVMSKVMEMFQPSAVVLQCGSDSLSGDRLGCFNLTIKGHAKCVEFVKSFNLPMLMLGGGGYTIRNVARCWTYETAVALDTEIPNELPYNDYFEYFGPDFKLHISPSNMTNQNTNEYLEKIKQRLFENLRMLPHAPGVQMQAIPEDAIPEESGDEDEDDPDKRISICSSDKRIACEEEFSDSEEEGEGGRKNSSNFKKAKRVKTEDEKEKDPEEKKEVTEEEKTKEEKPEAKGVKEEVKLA
HDAC2, sequence (Q92769 whole entry): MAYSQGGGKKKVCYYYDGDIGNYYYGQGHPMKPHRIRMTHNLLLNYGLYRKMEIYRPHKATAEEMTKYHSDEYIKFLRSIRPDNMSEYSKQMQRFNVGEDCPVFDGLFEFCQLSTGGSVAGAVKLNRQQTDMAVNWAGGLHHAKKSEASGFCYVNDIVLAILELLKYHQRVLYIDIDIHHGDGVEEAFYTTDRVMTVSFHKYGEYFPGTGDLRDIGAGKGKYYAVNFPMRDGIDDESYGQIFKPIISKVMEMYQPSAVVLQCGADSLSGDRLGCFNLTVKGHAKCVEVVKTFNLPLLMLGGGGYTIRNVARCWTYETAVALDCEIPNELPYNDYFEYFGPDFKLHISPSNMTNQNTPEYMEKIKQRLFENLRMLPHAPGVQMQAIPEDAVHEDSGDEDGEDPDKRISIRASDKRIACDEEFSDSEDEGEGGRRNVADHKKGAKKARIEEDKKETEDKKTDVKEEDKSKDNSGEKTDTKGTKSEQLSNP

Turning to `Nc1ccc(-c2ccncc2)cc1NC(=O)c1ccc2c(c1)cc(C1CC1)n2CCN1CCOCC1` [Compound 004, N-(2-amino-5-(pyridin-4-yl)phenyl)-2-cyclopropyl-1-(2-morpholinoethyl)-1H-indole-5-carboxamide], the figures for the pIC50 at HDAC1, at HDAC2 and on HDAC3 were 7.57, 7.62 and 6.61, respectively. Also, in data set [1], the “increase in the percentage of HbG relative to other beta-like globin transcripts” value amounted to 3 fold. The “decrease in cell viability” value in data set [2] amounted to 1.2 fold.
For the molecule `Nc1ccc(-c2cccs2)cc1NC(=O)c1ccc2nc(N3CCNCC3)ccc2c1` [Compound 001, N-(2-amino-5-(thiophen-2-yl)phenyl)-2-(piperazin-1-yl)quinoline-6-carboxamide], the values for the negative-log IC50 (pIC50) on HDAC1, on HDAC2 and on HDAC3 were 8.40, 7.82 and 6.94, respectively. Besides, in data set [1], the “increase in the percentage of HbG relative to other beta-like globin transcripts” value is recorded as 3 fold. In addition, the “HbG induction in cells positive for both CD71 and GlyA” value in data set [1] (follow-up experiments, CD71+ GlyA+ cells) was “unable to induce HbG”. Besides, the “decrease in cell viability” value in data set [2] is “approximately 3 fold”. Moreover, in [3], the “cells positive for the erythroid differentiation markers CD71 and glycophorinA” value is reported as “reduction”. For the same molecule, in data set [4], the “probe sets down regulated” value is 681. The “probe sets up regulated” value in [4] was found to be 1294. In addition, in data set [5], the “total probe set changes” value is reported as 255. Also, the “decrease in Bcl11A mRNA” value in the data set on Bcl11A mRNA turned out to be 2 fold. Further, the “increase in Gata2 mRNA” value in the data set with Gata2 mRNA is recorded as 8 fold. Also, in the data set on Klf2 mRNA, the “increase in Klf2 mRNA” value stood at 2 fold. Also, the “decrease in Sox6 mRNA” value in the data set on Sox6 mRNA was found to be 10 fold.
